The values below come from paper PMC6749586, “Design, Synthesis, and Anticancer Effect Studies of Iridium(III) Polypyridyl Complexes against SGC-7901 Cells” (Molecules, 2019).

One assay relates to HeLa cells. The assay can be described thus: MTT cytotoxicity assay, HeLa. The format is cell-based, human. To be noted: 48 h, read-out: IC50 toward HeLa. From the text:
(§1) The lung carcinoma cell line A549, the cervical cancer cell line HeLa, the esophageal cancer cell line Eca-109, and the human hepatocellular carcinoma cell line BEL-7402 were purchased from the cell bank of the Cell Institute of Sinica Academia Shanghai (Shanghai, China). The gastric adenocarcinoma cell line SGC-7901, the hepatocellular carcinoma cell line HepG2, and the mouse embryonic fibroblast cell line NIH 3T3 were obtained from the Experimental Animal Center of Sun Yat-Sen University (Guangzhou, China). The BEL-7402 and SGC-7901 cell lines were cultured in Roswell Park Memorial Institute Medium (RPMI-1640); and A549, Eca-109, HepG2, and NIH 3T3 cells were grown in Dulbecco’s Modified Eagle’s Medium (DMEM), including 10% fetal bovine serum (FBS), 100 units mL^−1 penicillin/streptomycin mixture, and 2.0 g/L of NaHCO3. Cell passage experiments were performed with trypsin every 2 days to maintain exponential growth. All cells were cultured until they reached logarithmic growth phase, unless specifically noted.
(§2) Cell cytotoxicity following treatment with the iridium(III) complexes was detected by MTT assay. The cells were seeded into 96-well micro-assay culture plates (1 × 10^4 cells per well) and grown overnight in a 5% CO2 incubator at 37 °C. Then, the cell lines were treated with gradient concentrations of the complexes 1–3. After treatment for 48 h, MTT solution (5 mg mL^−1, […]) dissolved in phosphate buffer was added to each well and the cells were further cultured for 4 h. Upon completion of incubation, the solvent was removed and 100 µL/well of buffer containing dimethylformamide (50%) and sodium dodecyl sulfate (20%) was added to dissolve the produced formazan. The absorbance of each well was measured with a microplate reader at a wavelength of 490 nm. The IC50 values were determined from the plots of viability versus concentration used to treat the cells. Three independent experiments were performed to obtain the mean values.
On the technique in general: Formazan colour is commonly taken as a measure of viable cells.

The subject of a further assay is A549 cells. The assay can be described thus: MTT cytotoxicity assay, A549. The class given is cell-based, human. To be noted: read-out: IC50 toward A549.
Description: as §1, §2

Assay [1] relates to SGC-7901 cells. The assay can be described thus: MTT cytotoxicity assay, SGC-7901. The class given is cell-based, human. To be noted: read-out: IC50 toward SGC-7901.
Description: as §1, §2

The next assay has as its system HepG2 cells. The assay is described as follows: MTT cytotoxicity assay, HepG2. The format is cell-based, human. To be noted: read-out: IC50 toward HepG2.
Description: as §1, §2

The next assay relates to NIH 3T3 cells. The assay can be described thus: MTT cytotoxicity assay, normal NIH 3T3. The format is cell-based, mouse. Particulars: Mus musculus, NIH3T3, 48 h, read-out: IC50 toward NIH 3T3.
Description: as §1, §2

The test system of another assay is BEL-7402 cells. The assay is described as follows: MTT cytotoxicity assay, BEL-7402. The class given is cell-based, human. Particulars: read-out: IC50 toward BEL-7402.
Description: as §1, §2

Assay [2] relates to SGC-7901 cells. The assay can be described thus: Mitochondrial membrane potential assay with JC-1. The class given is cell-based, human. Particulars: substance alone: 4.0 µM 1, 15.0 µM 2, 15.0 µM 3, CCCP or NAC; 24 h; control 12.03. How it is done:
The SGC-7901 cells were seeded into a 12-well plate at a density of 1.5 × 10^5 cells per well and incubated to attach at 37 °C in 5% CO2. Overnight, the cells were treated with complexes 1–3 for 24 h. CCCP was used as a positive control. Then, the cells were incubated with JC-1 for 30 min at room temperature, after which the remaining dye was washed away with PBS. The samples were then observed under the ImageXpress Micro XLS system and flow cytometry was employed to quantify the fluorescence intensity.

For the next assay, the system named is Eca-109 cells. The assay is described as follows: MTT cytotoxicity assay, Eca-109. The format is cell-based, human. Particulars: 48 h, read-out: IC50 toward Eca-109. From the text:
The lung carcinoma cell line A549, the cervical cancer cell line HeLa, the esophageal cancer cell line Eca-109, and the human hepatocellular carcinoma cell line BEL-7402 were purchased from the cell bank of the Cell Institute of Sinica Academia Shanghai (Shanghai, China). The gastric adenocarcinoma cell line SGC-7901, the hepatocellular carcinoma cell line HepG2, and the mouse embryonic fibroblast cell line NIH 3T3 were obtained from the Experimental Animal Center of Sun Yat-Sen University (Guangzhou, China). […] Cell passage experiments were performed with trypsin every 2 days to maintain exponential growth. All cells were cultured until they reached logarithmic growth phase, unless specifically noted. Cell cytotoxicity following treatment with the iridium(III) complexes was detected by MTT assay. The cells were seeded into 96-well micro-assay culture plates (1 × 10^4 cells per well) and grown overnight in a 5% CO2 incubator at 37 °C. Then, the cell lines were treated with gradient concentrations of the complexes 1–3. After treatment for 48 h, MTT solution (5 mg mL^−1, […]) dissolved in phosphate buffer was added to each well and the cells were further cultured for 4 h. […] The absorbance of each well was measured with a microplate reader at a wavelength of 490 nm. The IC50 values were determined from the plots of viability versus concentration used to treat the cells. Three independent experiments were performed to obtain the mean values.

Where two headings read alike, the source gives them in different places. Where only a bound is given, the exact number is not on record here.

On to `O=[N+]([O-])c1cc2cccnc2c2ncccc12` [NP, 5-nitrophenanthroline], for which the IC50 in the assay on HeLa cells (Homo sapiens, HeLa) is 18.1 ± 1.7 µM; with A549 cells (Homo sapiens, A549, 48 h), 11.1 ± 0.7 µM; in the assay with SGC-7901 cells [1] (Homo sapiens, SGC-7901, 48 h) it was 18.4 ± 0.1 µM; in the assay with HepG2 cells (Homo sapiens, HepG2, 48 h), 16.7 ± 0.5 µM; in the assay on NIH 3T3 cells, over 200 µM; in the assay on BEL-7402 cells (Homo sapiens, Bel-7402, 48 h), 23.5 ± 1.1 µM.
Take `CC(=O)N[C@@H](CS)C(=O)O` [NAC, N-acetylcysteine, reference compound]: the “Ratio of red/green JC-1 fluorescence intensity (R)” value with SGC-7901 cells [2] is 19.40.
With `N.N.[Cl][Pt][Cl]` [Cisplatin, reference compound], the IC50 in the assay with HeLa cells is 7 ± 1 µM; in the assay with A549 cells (48 h) it was 7.5 ± 1.3 µM; in the assay with SGC-7901 cells [1] (48 h) it was 3.6 ± 0.5 µM; in the assay on HepG2 cells (48 h), 12.5 ± 1.5 µM; with Eca-109 cells, 11.2 ± 0.6 µM; with BEL-7402 cells (48 h) it was 10.8 ± 1.6 µM.
Turning to `Nc1c([N+](=O)[O-])c2cccnc2c2ncccc12` [NAP, 5-nitro-6-amino-phenanthroline], the IC50 in the assay on HeLa cells (Homo sapiens, HeLa) is 45.8 ± 4 µM; with A549 cells (Homo sapiens, A549, 48 h), 42.7 ± 2.1 µM; with SGC-7901 cells [1] (Homo sapiens, SGC-7901, 48 h), 90.9 ± 7.4 µM; in the assay on HepG2 cells (Homo sapiens, HepG2, 48 h), 56 ± 1.9 µM; with NIH 3T3 cells, 61.9 ± 1.9 µM; in the assay with BEL-7402 cells (Homo sapiens, Bel-7402, 48 h), 21.1 ± 0.8 µM.
As for `Nc1c(N)c2cccnc2c2ncccc12` [DAP, 5,6-diamino-phenanthroline], the IC50 in the assay on HeLa cells (Homo sapiens, HeLa) stood at 9.2 ± 1 µM; in the assay on A549 cells (Homo sapiens, A549, 48 h) it was 5 ± 0.3 µM; in the assay with SGC-7901 cells [1] (Homo sapiens, SGC-7901, 48 h), 15.8 ± 2.8 µM; in the assay with HepG2 cells (Homo sapiens, HepG2, 48 h), 4.6 ± 0.8 µM; in the assay with NIH 3T3 cells it was 12.3 ± 0.8 µM; in the assay with BEL-7402 cells (Homo sapiens, Bel-7402, 48 h) it was 37.4 ± 3.2 µM.

As usually defined, the IC50 is the concentration at which inhibition is half-maximal.
